The results in this text go back to patent publication US20090062291A1, “PHOSPHODIESTERASE 10 INHIBITORS” (priority 2007, published 2009).

For this experiment, the target named is T1, mPDE10A7 (Mus musculus, UniProt Q8CA95).
T1 sequence (Q8CA95 446-763 limits assumed): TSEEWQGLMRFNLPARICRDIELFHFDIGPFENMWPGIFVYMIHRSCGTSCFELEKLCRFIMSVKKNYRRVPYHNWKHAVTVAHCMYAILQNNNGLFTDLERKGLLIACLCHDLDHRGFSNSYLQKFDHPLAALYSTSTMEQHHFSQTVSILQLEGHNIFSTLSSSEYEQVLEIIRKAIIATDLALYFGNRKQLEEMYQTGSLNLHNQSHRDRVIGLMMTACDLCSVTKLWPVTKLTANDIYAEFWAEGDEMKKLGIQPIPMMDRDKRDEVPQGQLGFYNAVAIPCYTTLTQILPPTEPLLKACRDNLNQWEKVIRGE
Nature of the experiment: mPDE10A7 enzyme inhibition (IMAP fluorescence polarization). The experiment is classed as biochemical. Particulars: fluorescein labeled cAMP or cGMP substrate, 30 min at room temperature. The procedure:
Enzyme Activity. To analyze the enzyme activity, 5 μL of serial diluted mPDE10A7 containing lysate were incubated with equal volumes of diluted (100-fold) fluorescein labeled cAMP or cGMP for 30 min in MDC HE 96-well assay plates (Molecular Devices Corp., Sunnyvale Calif.) at room temperature. Both the enzyme and the substrates were diluted in the following assay buffer: Tris/HCl (pH 8.0) 50 mM, MgCl2 5 mM, 2-mercaptoethanol 4 mM, and BSA 0.33 mg/mL. After incubation, the reaction was stopped by adding 20 μL of diluted (400-fold) binding reagents and was incubated for an hour at room temperature. The plates were counted in an Analyst GT (Molecular Devices) for fluorescence polarization. An IMAP assay kit (Molecular Devices) was used to assess enzyme properties of mPDE10A7. Data were analyzed with SOFTMAX PRO software (Molecular Devices).
Enzyme Inhibition. To check the inhibition profile, 10 μL of serial diluted compounds were incubated with 30 μl of diluted PDE enzymes in a 96-well polystyrene assay plate for 30 min at room temperature. After incubation, 5 μL of the compound-enzyme mixture were aliquoted into a MDC HE black plate, mixed with 5 μL of 100-fold diluted fluorescein labeled substrates (cAMP or cGMP), and incubated for 30 min at room temperature. The reaction was stopped by adding 20 μL of diluted binding reagents and counted in an Analyst GT for fluorescence polarization. The data were analyzed with SoftMax Pro.
The IC50 values of a representative number of compounds of the invention in the above assay are as follows: […]
(In general: Polarisation of emitted light reports the rotation of a fluorescent probe.)

In the case of `COc1cc2nncc(-c3cnc(N4CCC(C(C)(C)O)CC4)c(C4CC4)c3)c2cc1OC` [Cpd 1, 2-(1-(3-cyclopropyl-5-(6,7-dimethoxycinnolin-4-yl)pyridin-2-yl)piperidin-4-yl)propan-2-ol], the IC50 amounted to 1.1 nM.

Consider `COc1cc2nncc(-c3cnc(NC(C)C)c(C(N)=O)c3)c2cc1OC` [Cpd 26], for which the 50% inhibitory concentration (IC50) amounted to 9 nM.

In the case of `COc1cc2nncc(-c3ccc(N[C@H]4CCCc5c(Br)cccc54)nc3)c2cc1OC` [Cpd 11], 258 nM corresponded to half-maximal inhibition (IC50).

In turn, `COc1cc2nncc(-c3ccc(NC4CCCc5ncccc54)nc3)c2cc1OC` (stereo not shown) [Cpd 5] yielded a concentration for half-maximal inhibition (IC50) of 2.3 nM.

For `C=Cc1cc(-c2cnnc3cc(OC)c(OC)cc23)cnc1NC(C)C` [Cpd 22], the IC50 worked out at 1.7 nM.

In the case of `COc1cc2nncc(-c3cnc(NC(C)C)c(C#N)c3)c2cc1OC` [Cpd 25], the IC50 was determined as 12 nM.

Consider `COc1cc2nncc(-c3ccc(NC4CCc5cccc(OC)c5C4)nc3)c2cc1OC` (stereo not shown) [Cpd 14], for which 143 nM corresponded to half-maximal inhibition (IC50).

For `COc1cc2nncc(-c3cnc(N4CCC(O)(c5cccnc5)CC4)c(C4CC4)c3)c2cc1OC` [Cpd 15], the IC50 came to 0.2 nM.

The molecule `COc1cc2nncc(-c3ccc(N[C@@H]4CCCc5ncccc54)nc3)c2cc1OC` [Cpd 6] showed an IC50 of 2.6 nM.

Regarding `COc1cc2nncc(-c3ccc(NC4CCOc5ccccc54)nc3)c2cc1OC` (stereo not shown) [Cpd 8], the 50% inhibitory concentration (IC50) is 12 nM.

One may read the IC50 as the concentration needed to halve the response being measured. Low readings indicate higher potency, high ones lower potency.
